Measurements taken from PubChem BioAssay (NCI).
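Dose response: 5 concentrations. Exposure: 48 h. Format: 96-well plates. Endpoint: linear interpolation; highest concentration if not reached. GI50 = concentration required for 50% inhibition of growth. TGI is the concentration that stops growth completely.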

Assays:
Test in all cases: NCI tumour cell line growth inhibition, 48 h
CCRF-CEM leukemia = test system: CCRF-CEM leukemia
OVCAR-4 ovarian = test system: OVCAR-4 ovarian
MDA-MB-231 breast = test system: MDA-MB-231 breast
HCT-15 colon = test system: HCT-15 colon
HL-60(TB) leukemia = test system: HL-60(TB) leukemia
SW-620 colon = test system: SW-620 colon
SF-295 CNS = test system: SF-295 CNS
UACC-62 melanoma = test system: UACC-62 melanoma
ACHN renal = test system: ACHN renal
SF-268 CNS = test system: SF-268 CNS
SK-OV-3 ovarian = test system: SK-OV-3 ovarian
UACC-257 melanoma = test system: UACC-257 melanoma
SK-MEL-5 melanoma = test system: SK-MEL-5 melanoma
OVCAR-5 ovarian = test system: OVCAR-5 ovarian
DU-145 prostate = test system: DU-145 prostate
HCT-116 colon = test system: HCT-116 colon
NCI-H23 lung = test system: NCI-H23 lung
HS 578T breast = test system: HS 578T breast
786-0 renal = test system: 786-0 renal
U251 CNS = test system: U251 CNS
OVCAR-8 ovarian = test system: OVCAR-8 ovarian
NCI-H522 lung = test system: NCI-H522 lung
NCI/ADR-RES ovarian = test system: NCI/ADR-RES ovarian
SNB-75 CNS = test system: SNB-75 CNS
SN12C renal = test system: SN12C renal
MALME-3M melanoma = test system: MALME-3M melanoma
K-562 leukemia = test system: K-562 leukemia
OVCAR-3 ovarian = test system: OVCAR-3 ovarian
KM12 colon = test system: KM12 colon
CAKI-1 renal = test system: CAKI-1 renal
NCI-H460 lung = test system: NCI-H460 lung
SR leukemia = test system: SR leukemia
MDA-MB-435 = test system: MDA-MB-435
BT-549 breast = test system: BT-549 breast
SF-539 CNS = test system: SF-539 CNS
A498 renal = test system: A498 renal
A549 NSCLC = test system: A549 NSCLC
HOP-62 NSCLC = test system: HOP-62 NSCLC
HCC-2998 colon = test system: HCC-2998 colon
UO-31 renal = test system: UO-31 renal
RXF 393 renal = test system: RXF 393 renal
HT29 colon = test system: HT29 colon
LOX IMVI melanoma = test system: LOX IMVI melanoma
MCF7 breast = test system: MCF7 breast
COLO 205 colon = test system: COLO 205 colon
M14 melanoma = test system: M14 melanoma
PC-3 prostate = test system: PC-3 prostate
NCI-H226 lung = test system: NCI-H226 lung
IGROV1 ovarian = test system: IGROV1 ovarian
SK-MEL-28 melanoma = test system: SK-MEL-28 melanoma
SNB-19 CNS = test system: SNB-19 CNS
SK-MEL-2 melanoma = test system: SK-MEL-2 melanoma
T-47D breast = test system: T-47D breast
HOP-92 NSCLC = test system: HOP-92 NSCLC
RPMI-8226 leukemia = test system: RPMI-8226 leukemia
MOLT-4 leukemia = test system: MOLT-4 leukemia

O=C1/C(=C/c2ccc(Cl)cc2Cl)CN(S(=O)(=O)c2ccccc2)C/C1=C\c1ccc(Cl)cc1Cl
GI50 (CCRF-CEM leukemia): 291 nM | TGI (CCRF-CEM leukemia): 1300 nM | GI50 (OVCAR-4 ovarian): 291 nM | TGI (OVCAR-4 ovarian): > 96000 nM | GI50 (MDA-MB-231 breast): 469 nM | TGI (MDA-MB-231 breast): 2670 nM | GI50 (HCT-15 colon): 226 nM | TGI (HCT-15 colon): 614 nM | GI50 (HL-60(TB) leukemia): 731 nM | TGI (HL-60(TB) leukemia): > 19900 nM | GI50 (SW-620 colon): 314 nM | TGI (SW-620 colon): 2540 nM | GI50 (SF-295 CNS): 279 nM | TGI (SF-295 CNS): 1990 nM | GI50 (UACC-62 melanoma): 1180 nM | TGI (UACC-62 melanoma): 4410 nM | GI50 (ACHN renal): 717 nM | TGI (ACHN renal): 6880 nM | GI50 (SF-268 CNS): 385 nM | TGI (SF-268 CNS): > 35700 nM | GI50 (SK-OV-3 ovarian): 7320 nM | TGI (SK-OV-3 ovarian): 98900 nM | GI50 (UACC-257 melanoma): 17700 nM | TGI (UACC-257 melanoma): > 100000 nM | GI50 (SK-MEL-5 melanoma): 14500 nM | TGI (SK-MEL-5 melanoma): > 100000 nM | GI50 (OVCAR-5 ovarian): 1020 nM | TGI (OVCAR-5 ovarian): 4650 nM | GI50 (DU-145 prostate): 466 nM | TGI (DU-145 prostate): 19700 nM | GI50 (HCT-116 colon): 198 nM | TGI (HCT-116 colon): 421 nM | GI50 (NCI-H23 lung): 381 nM | TGI (NCI-H23 lung): 2400 nM | GI50 (HS 578T breast): 322 nM | TGI (HS 578T breast): 3870 nM | GI50 (786-0 renal): 230 nM | TGI (786-0 renal): 509 nM | GI50 (U251 CNS): 173 nM | TGI (U251 CNS): 351 nM | GI50 (OVCAR-8 ovarian): 313 nM | GI50 (NCI-H522 lung): 1130 nM | TGI (NCI-H522 lung): 3930 nM | GI50 (NCI/ADR-RES ovarian): 1150 nM | TGI (NCI/ADR-RES ovarian): > 100000 nM | GI50 (SNB-75 CNS): 473 nM | TGI (SNB-75 CNS): 8200 nM | GI50 (SN12C renal): 288 nM | TGI (SN12C renal): 1100 nM | GI50 (MALME-3M melanoma): 7200 nM | TGI (MALME-3M melanoma): > 100000 nM | GI50 (K-562 leukemia): 326 nM | TGI (K-562 leukemia): > 38300 nM | GI50 (OVCAR-3 ovarian): 259 nM | TGI (OVCAR-3 ovarian): 620 nM | GI50 (KM12 colon): 276 nM | TGI (KM12 colon): 728 nM | GI50 (CAKI-1 renal): 817 nM | TGI (CAKI-1 renal): 4220 nM | GI50 (NCI-H460 lung): 224 nM | TGI (NCI-H460 lung): 498 nM | GI50 (SR leukemia): 198 nM | TGI (SR leukemia): 925 nM | GI50 (MDA-MB-435): 701 nM | TGI (MDA-MB-435): 2890 nM | GI50 (BT-549 breast): 617 nM | TGI (BT-549 breast): 2640 nM | GI50 (SF-539 CNS): 315 nM | TGI (SF-539 CNS): 1130 nM | GI50 (A498 renal): 1500 nM | TGI (A498 renal): 8760 nM | GI50 (A549 NSCLC): 316 nM | TGI (A549 NSCLC): 1510 nM | GI50 (HOP-62 NSCLC): 343 nM | GI50 (HCC-2998 colon): 379 nM | TGI (HCC-2998 colon): 1310 nM | GI50 (UO-31 renal): 233 nM | TGI (UO-31 renal): 675 nM | GI50 (RXF 393 renal): 1050 nM | TGI (RXF 393 renal): 2680 nM | GI50 (HT29 colon): 301 nM | TGI (HT29 colon): 907 nM | GI50 (LOX IMVI melanoma): 193 nM | TGI (LOX IMVI melanoma): 395 nM | GI50 (MCF7 breast): 292 nM | TGI (MCF7 breast): > 100000 nM | GI50 (COLO 205 colon): 339 nM | TGI (COLO 205 colon): 1210 nM | GI50 (M14 melanoma): 2770 nM | TGI (M14 melanoma): > 100000 nM | GI50 (PC-3 prostate): 299 nM | TGI (PC-3 prostate): 979 nM | GI50 (NCI-H226 lung): 513 nM | TGI (NCI-H226 lung): 1350 nM | GI50 (IGROV1 ovarian): 344 nM | TGI (IGROV1 ovarian): 1290 nM | GI50 (SK-MEL-28 melanoma): 8290 nM | TGI (SK-MEL-28 melanoma): > 100000 nM | GI50 (SNB-19 CNS): 496 nM | TGI (SNB-19 CNS): 10800 nM | GI50 (SK-MEL-2 melanoma): 15400 nM | TGI (SK-MEL-2 melanoma): > 100000 nM | GI50 (T-47D breast): 594 nM | GI50 (HOP-92 NSCLC): 1700 nM | TGI (HOP-92 NSCLC): 5550 nM | GI50 (RPMI-8226 leukemia): 196 nM | TGI (RPMI-8226 leukemia): 562 nM | GI50 (MOLT-4 leukemia): 460 nM | TGI (MOLT-4 leukemia): 12000 nM
